One test relates to BCE cells. Description: Intracellular gradient formation of a membrane permeable nucleic acid binding dye in a single BCE cell. The format is cell-based, Bovine. As to conditions: 60 μM Syto 9 in DMEM/10% CS over one portion of the cell, dye-free media over the other. The protocol: Bovine adrenal capillary endothelial (BCE) cells were cultured and harvested as described in D. E. Ingber & J. Folkman, J. Cell Biol., Vol. 109, pp. 317-330, 1989, incorporated herein by reference. In brief, cells were cultured under 10% CO2 on Petri dishes (Falcon) coated with gelatin in DMEM (GIBCO) containing 10% calf serum (CS), 2 mM glutamine, 100 μg/ml streptomycin, 100 μg/ml penicillin, and 1 ng/ml basic fibroblast growth factor (bFGF). Cells were dissociated from culture plates with trypsin/EDTA and washed in DMEM containing 1% wt/vol BSA (BSA/DMEM). These cells were suspended in chemically defined medium (10 μg/ml high density lipoprotein/5 μg/ml transferrin/5 ng/ml bFGF in BSA/DMEM) as described in D. E. Ingber, Proc. Natl. Acad. Sci. USA, Vol. 87, pp. 3579-3583 (1990), incorporated herein by reference, introduced into capillary networks (pretreated with 50 μg/ml fibronectin for 1 hr) from the inlet wells, and incubated in 10% CO2 at 37° C. for 4-6 hr to permit attachment and spreading upon the glass cover slip forming the bottom of the microchannel network. […]
The flowing streams and attached BCEs were visualized utilizing a fluorescence inverted microscope, as illustrated in FIG. 3B. […]

For test [1], the system named is BCE cells (actin filaments). Description: Partial treatment of single BCE cells with a membrane-permeable actin disrupting drug in a two-component laminar flow stream. The following applies: for actin cytoskeleton after treatment (phalloidin Alexa 594 stain): about 10 min. The format is cell-based, Bovine. The protocol: Bovine adrenal capillary endothelial (BCE) cells were cultured and harvested as described in D. E. Ingber & J. Folkman, J. Cell Biol., Vol. 109, pp. 317-330, 1989, incorporated herein by reference. In brief, cells were cultured under 10% CO2 on Petri dishes (Falcon) coated with gelatin in DMEM (GIBCO) containing 10% calf serum (CS), 2 mM glutamine, 100 μg/ml streptomycin, 100 μg/ml penicillin, and 1 ng/ml basic fibroblast growth factor (bFGF). Cells were dissociated from culture plates with trypsin/EDTA and washed in DMEM containing 1% wt/vol BSA (BSA/DMEM). These cells were suspended in chemically defined medium (10 μg/ml high density lipoprotein/5 μg/ml transferrin/5 ng/ml bFGF in BSA/DMEM) as described in D. E. Ingber, Proc. Natl. Acad. Sci. USA, Vol. 87, pp. 3579-3583 (1990), incorporated herein by reference, introduced into capillary networks (pretreated with 50 μg/ml fibronectin for 1 hr) from the inlet wells, and incubated in 10% CO2 at 37° C. for 4-6 hr to permit attachment and spreading upon the glass cover slip forming the bottom of the microchannel network. After the above incubation to allow for binding and attachment, non-adherent cells were removed by washing each of the flow channels with media (1% wt/vol. BSA/DMEM) for about 3 min. at a maximum bulk flow velocity of about 0.6 cm/s (Re<1).
Device fabrication and cell culture and attachment of BCE cells was performed as described above in Example 1. Creation and maintenance of flow in the channels and selection and observation of a BCE cell positioned straddling the interface of two components of the flow stream established in the main flow channel was performed in a similar fashion as described previously in Example 1.
In the present example, prior to selective treatment of a portion of a single BCE cell with a membrane-permeable actin disrupting drug, the BCE cells attached to the microfluidic network were uniformly exposed to media containing Mitotracker Green™ FM mitochondrial stain, as described in Example 2, in order to uniformly stain the mitochondria of each of the BCE cells in the microfluidic channels. Subsequent to mitochondrial staining, partial cell treatment with the actin disrupting drug was accomplished by filling right-most well 316 (see FIG. 3A) of the microfluidic channel network with media containing latrunculin A (1 μM in DMEM/10% CS). Similar media, except not including the latrunculin A, was added to inlet wells 312 and 314, and flow was maintained during the experiment as described previously in Example 1. […]

For Syto 9, in the test with BCE cells, the “time until intracellular diffusion reached approximately its steady state value” is reported as “about 10 minutes”.
With `C/C1=C/C(=O)O[C@@H]2C[C@@H](CC[C@H](C)/C=C\C=C\CC1)O[C@@](O)([C@@H]1CSC(=O)N1)C2` [latrunculin A], in test [1] (center cell, latrunculin A supplied to right-hand portion only, peripheral cell shape relatively unchanged), the “displacement of mitochondria and nucleus on local actin disruption” value was “caused the mitochondria and nucleus to shift towards the left”. Moreover, the “actin cytoskeleton after treatment (phalloidin Alexa 594 stain)” value is given as “greatest degree of actin disruption evident in its treated, right side portion” in test [1] (center cell, only right-hand part exposed to latrunculin A-containing media, 1 μM) and “a substantial portion of the actin cytoskeleton appears, in the rightmost cell, to be depolymerized” in test [1] (rightmost cell fully exposed to latrunculin A-containing media, 1 μM in DMEM/10% CS). Moreover, the “positions of the mitochondria (Mitotracker Green FM stained)” value in test [1] (center cell, right-hand part exposed to 1 μM latrunculin A for 10 min) is on record as “have shifted towards the left-hand (untreated) part of the cell”.
